Target: T1, Collagenase from Clostridium histolyticum
T1 construct: gene colG; ColG / ColH not distinguished
Experiment: spectrophotometric FALGPA hydrolysis, […] nm
Format: biochemical
Conditions: substrate FALGPA 0.8 mM; 50 mM tricine pH 7.5, 400 mM NaCl, 10 mM CaCl2; 15 min pre-incubation, room temperature

CC1(C)CC[C@]2(C(=O)O)CC[C@]3(C)C(=CC[C@@H]4[C@@]5(C)CC[C@H](O)C(C)(C)[C@@H]5CC[C@]43C)[C@@H]2C1 [oleanolic acid]
Standard Oleanolic Acid *: 25.66 ± 0.39 µg/mL

Reference: paper PMC10221029, “Photoprotection and Antiaging Activity of Extracts from Honeybush (Cyclopia sp.)—In Vitro Wound Healing and Inhibition of the Skin Extracellular Matrix Enzymes: Tyrosinase, Collagenase, Elastase and Hyaluronidase” (Pharmaceutics, 2023)
